The structures appear in SMILES notation.

Data on six molecules can be found in US20090068210A1, “IMMUNOTHERAPY FOR HEMATOLOGICAL MALIGNANCIES” (priority 2007, published 2009).

Series [1] has as its system iNKT cells. Kind of series: Cytokine production (ELISA) by iNKT cells co-cultured with antigen presenting cells (MM1S.CD1d cells or DCs), with or without α-GalCer. The series is classed as cell-based, human. The protocol: 1×10^5 NKT cells from MM patients were plated in a 96-well plate with MM1S.CD1d cells or DCs at ratios of 2:1 and 4:1, respectively, with or without pre-loaded α-GalCer (100 ng/ml). 1-Oxo-2-(2,6-dioxopiperidin-3-yl)-4-aminoisoindoline (2 μM) was used as indicated, with DMSO as control. The supernatant was collected at 48 and 72 hours and the levels of IFN-γ, IL-2 and IL-4 were determined by ELISA (R&D Systems, Minneapolis, Minn.).
For orientation: ELISA stands for enzyme-linked immunosorbent assay.

For series [2], the system named is iNKT cells. The description is as above. It counts as cell-based, human. The source holds these as a separate data set.
The conditions of series [3]: cited from earlier work; for Hygroscopicity: polymorphic form; for Interconversion in solvent systems: interconversion studies.
Where [4] appears, read: iNKT cells + MM1S.CD1d cells in the absence of α-GalCer, compound 2 μM, ELISA.
Where [5] appears, read: iNKT cells + α-GalCer-loaded MM1S.CD1d cells, compound 2 μM vs controls (DMSO), ELISA.

For `Nc1cccc2c1CN(C1CCC(=O)NC1=O)C2=O` (stereo not shown) [1-oxo-2-(2,6-dioxopiperidin-3-yl)-4-aminoisoindoline], the IL-4 level entry in the series on iNKT cells [1] (iNKT cells + CD1d expressing multiple myeloma cells without α-GalCer, compound vs cells alone) was “decrease”. Moreover, in the series with iNKT cells [1] (setting [4]), the IFN-γ production result is listed as “increase” and the IL-2 production result is listed as “increase”. In the series on iNKT cells [1] (setting [5]), the IFN-γ level result is “significant increase”, the IL-2 level result is “significant increase” and the IL-4 level entry was “decrease”. Moreover, the “Increase in IFN-γ and IL-2 levels and decrease in IL-4 level” value in the series on iNKT cells [2] (CD1d-transfected C1R cells as antigen presenting cells) is “confirmed”. For the same molecule, in the series with iNKT cells [2] (iNKT cells alone or co-cultured with mock MM.1S cells, with or without α-GalCer), the “Direct stimulation of iNKT cells” value is recorded as “did not directly stimulate”.
With `Nc1cccc2c1CN(C1CCC(=O)NC1=O)C2=O` (stereo not shown) [Form A, 3-(4-amino-1-oxo-1,3 dihydro-isoindol-2-yl)-piperidene-2,6-dione], the “Relative stability among polymorphs” value in series [3] (Form A: anhydrous polymorphs, Form E: aqueous solvent systems) is “most thermodynamically stable anhydrous polymorph”. Also, in series [3], the Hygroscopicity result was “weakly or not hygroscopic”.
Regarding `Nc1cccc2c1CN(C1CCC(=O)NC1=O)C2=O` (stereo not shown) [Form B, 3-(4-amino-1-oxo-1,3 dihydro-isoindol-2-yl)-piperidene-2,6-dione], the Conversion upon heating result in series [3] (175° C. for about five minutes) is given as “can convert to Form F”. Also, the “Interconversion in solvent systems” value in series [3] is listed as “converts to Form E in aqueous solvent systems”.
With `Nc1cccc2c1CN(C1CCC(=O)NC1=O)C2=O` (stereo not shown) [Form C, 3-(4-amino-1-oxo-1,3 dihydro-isoindol-2-yl)-piperidene-2,6-dione], the Hygroscopicity result in series [3] is “not hygroscopic below about 85% RH”.
Regarding `Nc1cccc2c1CN(C1CCC(=O)NC1=O)C2=O` (stereo not shown) [Form D, 3-(4-amino-1-oxo-1,3 dihydro-isoindol-2-yl)-piperidene-2,6-dione], the Hygroscopicity result in series [3] is reported as “either weakly or not hygroscopic”.
Regarding `Nc1cccc2c1CN(C1CCC(=O)NC1=O)C2=O` (stereo not shown) [Form E, 3-(4-amino-1-oxo-1,3 dihydro-isoindol-2-yl)-piperidene-2,6-dione], the “Conversion upon heating (desolvation)” value in series [3] (about 125° C. for about five minutes) is “can convert to Form B”. Further, in series [3], the “Interconversion in solvent systems” value was “can convert to Form C in an acetone solvent system and to Form G in a THF solvent system”.
